For series [1], the system named is murine disease models of atherosclerosis. The note with it: mouse, in vivo; cited from earlier work.
The test system of series [2] is macrophage specific ABCA1 KO (ABCA1 Cre-LysM) macrophages treated with 5% CSE. Nature of the series: ABCA1 KO (ABCA1 Cre-LysM) mouse macrophages treated with 5% CSE with or without LXR agonist. In kind it is cell-based. As to the method: FIG. 14. Effect of LXR dependent ABCA1 reexpression on cigarette smoke induced pro-inflammatory and MMP signaling pathways in macrophages. (A.) Western Blot analysis of JNK phosphorylation (oxidative stress activated MAP kinase), (B.) mRNA expression analysis of TLR4/Myd88 in mouse macrophages treated with 5% CSE with or without LXR agonist (T0901317-Cayman) in 3 μM concentration. (C-E.) mRNA expression analysis of inflammatory cytokines TNFα (C.), IL-1β (D.) and IL-10 (E.) mouse macrophages isolated from bone marrow of WT (ABCA1 fl/fl mice) and macrophage specific ABCA1 KO (ABCA1 Cre-LysM) treated with 5% CSE with or without LXR agonist (T0901317-Cayman) in 3 μM concentration. (F-H.) Analysis of MMP activation mouse macrophages isolated from bone marrow of WT (ABCA1 fl/fl mice) and macrophage specific ABCA1 KO (ABCA1 Cre-LysM) treated with 5% CSE with or without LXR agonist (T0901317-Cayman) in 3 μM concentration. MMP-9 and -13 mRNA expression (F.), MMP-9 mRNA expression with LXR agonist treatment, (H.) MMP-9 activity assayed by gelatin zymography. β-Actin was used as a housekeeping gene control for RT-PCR. Values are presented as statistically significant when *p<0.05, **p<0.01, ***p<0.001 when compared to controls and #p<0.05 compared to 5% CSE.
In these experiments both mouse peritoneal and mouse bone marrow derived macrophages (BMdM) were utilized. Mouse peritoneal macrophages were isolated from peritoneal cavities of 3% thioglycolate injected mice on the 5th day from injection. To compare expression of genes in vitro and in vivo peritoneal macrophages were isolated from mice exposed to room air and cigarette smoke. For in vitro analysis cells were seeded on culture plates for 24 h and then treated with CSE. For in vivo analysis cells were collected from peritoneal cavity and mRNA was directly isolated. […] The obtained cells were then counted (usually 100-150 million cells per mouse) and centrifuged for 5 min at 2600 rpm. […] Approximately after 7-10 days of plating the cells become fully differentiated into macrophages and were ready for subsequent experiments. […]

Series [3] concerns human peripheral blood monocytes differentiated to macrophages, 5% CSE. As to the kind of experiment: Human monocyte-derived macrophages treated with 5% CSE with or without LXR agonist. The class given is cell-based. As to conditions: LXR agonist 3 μM. From the text:
FIG. 21. Downregulation of ABC transporters in Chronic Obstructive Pulmonary Disease (COPD) as potential therapeutic target with LXR agonist. (A.) (Left) mRNA expression analysis of ABCA1 G1 in lungs of patients with moderate (after lung volume reduction) and severe COPD (after lung transplantation) and (Right) mRNA expression analysis of ABCA1/G1 in lungs of patients with moderate and severe COPD (n=7). (B.) mRNA analysis of ABCA1, ABCG1, MMP9, (C.) MMP-2 and 9 activity assayed by gelatin zymography in human peripheral blood monocytes differentiated to macrophages in vitro by 3 days treatment with M-CSF (10Ong/m1). After differentiation process human macrophages were treated with 5% CSE with or without LXR agonist (T0901317-Cayman) treatment in 3 μM concentration. β-Actin was used as a housekeeping gene control for RT-PCR. Values are presented as statistically significant when *p<0.05, **p<0.01, ***p<0.001 when compared to controls and #p<0.05 compared Co LXR treated human macrophages.
To prepare cigarette (CSE), the smoke from one cigarette (1.1 mg of nicotine, 15 mg of tar) was passed through 25 mls of phosphate buffered saline (PBS) (Mercer et al., 2004). The pH of the extracted solution was adjusted to 7.4 and then filtered (Mercer et al., 2004). CSE was added to the media at concentrations up to 5% (vol/vol) (Mercer et al., 2004).

Series [4] is described as follows: In vivo bioavailability of LXR agonist in lung and serum (LC/MS/MS). Set-up: species or system mouse. As to the method: FIG. 23. In vivo bioavailability of LXR agonist (T0901317) in the lung and serum after intraperitoneal (IP) and custom made diet administration. (A.) T0901317 LC/MS/MS Chromatogram showing no difference among standard and samples in the peak shape and retension time. (B.) Table representing levels of the administered drug in serum and lungs of AKR/J mice by IP (2 and 24 hours post drug administration) and in custom made diet (Research Diets Inc, 0.015% w/w). The result was normalized by using serum volume and lung tissue weight. No T0901317 was detected in control serum and lung.

SMILES strings stand for the structures.

As to `O=S(=O)(c1ccccc1)N(CC(F)(F)F)c1ccc(C(O)(C(F)(F)F)C(F)(F)F)cc1` [T0901317, N-(2,2,2-trifluoroethyl)-N-[4-[2,2,2-trifluoro-1-hydroxy-1-(trifluoromethyl)ethyl]phenyl]-benzenesulfonamide], in series [1], the “cholesterol level in serum and liver” value is “lowers”; the development of atherosclerosis entry is recorded as “inhibits”. For the same compound, the “decrease in MMP-9 activity and expression, MMP-13 expression and TNFα expression” value in series [2] (ABCA1 KO macrophages) is on record as “not observed”. Moreover, the “reversal of induction of cytokines by 5% CSE” value in series [2] (ABCA1 macrophage knockout, LXR agonist 3 μM) is “not able to reverse”. Besides, the “reduction of mRNA and activity of MMP-9: dependence on ABCA1” value in series [2] (WT versus ABCA1 KO macrophages, 5% CSE, LXR agonist 3 μM) was “only in the presence of the ABCA1 transporter”. Also, in series [3], the “ABC transporter levels (ABCA1, ABCG1 mRNA)” value is given as “restored”; the “CSE increased MMP-9 expression and activity” value is “inhibited”. Besides, the “drug detected in the lungs” value in series [4] (after IP administration, acute 10 day model) is given as “detected”. Also, in series [4] (chronic 5 months model (diet 0.015% w/w), text prints after IP administration), the “drug detected in the lungs” value is recorded as “detected”.

The values above are taken from patent US20160310454A1, “LIVER X RECEPTOR AGONISTS IN THE TREATMENT OF EMPHYSEMA” (priority 2013, published 2016).
